Measurements from PMC5084075 (ACS Central Science, 2016).
Read-outs that look alike come from different tables or passages of the source.

How the values were obtained:
[1] = test system: T1, Plasmodium falciparum 3D7; assay: microbe, parasite or virus in culture; set-up: species or system P. falciparum blood stage culture; whole-cell asexual blood stage P. falciparum growth inhibition; settings: Avery assay, read-out: 3D7 / IC50nM
T1 construct: 3D7
Procedure: (§1) To confirm the promise of the two starting points OSM-S-5 and -6, they were evaluated against 3D7 (drug-sensitive) and K1 (chloroquine resistant) strains of Plasmodium falciparum in a whole cell assay and against HEK-293 cells as a cytotoxicity marker (Table SB1, Biological Protocols; tables with the prefix “SB” may be found in the Supporting Information). Biological data may be browsed in a static data set taken as a snapshot for this paper (Data Sets S1 (Excel), S2 (SDF)), online in a database constructed through periodic batch uploads,[68] or in a “living database” to which may be added future data;[69] the latter may be visualized in a web browser[70] using an open source system that was recently deployed in the Wikipedia Chemical Structure Explorer,[71] or the data may be downloaded and visualized offline with proprietary (Figure S4)[72] or open source (Figure S5)[73] tools). The evaluation was performed in three different institutions using different assays and widely employed controls; controls are important to assess reproducibility and interassay variability[74] but also to minimize possible bias in evaluating compounds where there are pre-existing data from other researchers already in the public domain (Figure S6).[75]

[2] = test system: T2, Plasmodium falciparum Pfal (K1); assay: microbe, parasite or virus in culture; set-up: species or system erythrocytes; P. falciparum asexual blood-stage whole-cell growth inhibition, IC50; settings: K1, Erythrocyte
T2 construct: K1
Procedure: as §1

[3] = test system: T3, Plasmodium falciparum K1 (chloroquine resistant); assay: microbe, parasite or virus in culture; set-up: species or system P. falciparum blood stage culture; whole-cell asexual blood stage P. falciparum growth inhibition
T3 construct: K1
Procedure: as §1

[4] = test system: Plasmodium falciparum Pfal (strain not named in column head); assay: microbe, parasite or virus in culture; set-up: species or system P. falciparum blood stage culture; whole-cell asexual blood stage P. falciparum growth inhibition
Procedure: as §1

[5] = test system: T4, Plasmodium falciparum Pfal (3D7); assay: microbe, parasite or virus in culture; set-up: species or system erythrocytes; P. falciparum asexual blood-stage whole-cell growth inhibition, IC50; settings: 3D7, Erythrocyte, lab named in column head
T4 construct: 3D7
Procedure: as §1

PfDHODH = biological target: T5, PfDHODH (Plasmodium falciparum, UniProt Q08210); assay: biochemical; set-up: PfDHODH enzyme inhibition IC50; settings: read-out: DHODH
T5 sequence (Q08210 1-569): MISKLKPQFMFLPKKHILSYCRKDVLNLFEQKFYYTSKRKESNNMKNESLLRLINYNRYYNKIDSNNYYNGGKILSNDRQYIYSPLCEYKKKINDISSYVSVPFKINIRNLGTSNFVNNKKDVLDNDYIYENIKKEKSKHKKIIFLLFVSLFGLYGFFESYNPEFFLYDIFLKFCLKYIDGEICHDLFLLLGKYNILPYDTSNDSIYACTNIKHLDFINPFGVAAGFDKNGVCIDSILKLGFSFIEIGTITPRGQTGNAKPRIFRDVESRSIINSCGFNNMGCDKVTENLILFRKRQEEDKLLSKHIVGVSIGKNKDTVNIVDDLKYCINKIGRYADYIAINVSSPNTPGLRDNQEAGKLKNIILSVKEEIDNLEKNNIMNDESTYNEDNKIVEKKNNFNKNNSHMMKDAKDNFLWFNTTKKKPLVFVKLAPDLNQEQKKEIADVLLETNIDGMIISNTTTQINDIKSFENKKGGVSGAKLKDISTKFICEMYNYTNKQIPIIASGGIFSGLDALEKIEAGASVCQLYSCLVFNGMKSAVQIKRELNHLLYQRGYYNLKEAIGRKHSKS
Text: The potency of the near neighbor set led to an in silico target prediction study being performed on OSM-S-39 (Text S11). The method employed a naive Bayes statistical model identifying molecular structural features of small molecules with protein targets, using the ChEMBL database. Similar statistical approaches based on known activities of compounds have been successfully applied to identify targets of antitubercular compounds.[112]−[114] A total of 1,287 proteins were included for which at least 50 active compounds were known with activities <10 μM, with the other compounds in the database comprising the inactives. After the OSM compounds were scored against each target, the scores obtained were standardized by comparison with scores obtained through comparison with a random set of >10K compounds. The prediction list was culled for proteins relevant to malaria (3D7 proteome), and the analysis gave as the most likely candidate targets, in order of significance, carboxy-terminal domain RNA polymerase II polypeptide A small phosphatase 1 (Q8I3U9), dihydroorotate dehydrogenase (DHODH, Q08210), SUMO-activating enzyme subunit 2 (Q8I553) and 1 (Q8IHS2), and cyclin-dependent kinase 1 (P61075). […] A line of inquiry remaining open is the equivalent assays against the other targets identified in the in silico prediction.

[6] = Guy assay, read-out: Pfal (K1) IC50 (Guy)

**Q.** For `C[C@@H]1CC[C@H]2[C@@H](C)C(=O)O[C@@H]3O[C@@]4(C)CC[C@@H]1[C@]32OO4` [Artemisinin], which IC50 [1] is on record?
**A.** The IC50 was 6 nM.

**Q.** What about the IC50 ([2]; read-out: K1 / IC50nM) of the same compound?
**A.** Its IC50 is 0.61 nM.

**Q.** For `CCN(CC)CCCC(C)Nc1ccnc2cc(Cl)ccc12` (stereo not shown) [Chloroquine], which IC50 [1] is on record?
**A.** The IC50 was 18.7 nM.

**Q.** What about the IC50 ([3]; Avery assay, read-out: K1 / IC50nM) of the same compound?
**A.** The IC50 was 266 nM.

**Q.** What does the source list for `Cc1cc(/C=C2\SC(=Nc3ccccc3)NC2=O)c(C)n1-c1ccc(S(N)(=O)=O)cc1` [OSM-A-1]?
**A.** IC50 [3, 6]: 4380 nM; IC50 ([4]; Guy assay): 3.05 µM; IC50 ([5]; read-out: Pfal IC50 (Guy)): 3.05 µM; IC50 ([2]; lab named in column head, read-out: Pfal (K1) IC50 (Guy)): 4380 nM

**Q.** `Cc1cc(/C=C2\S/C(=N\c3ccccc3)NC2=O)c(C)n1-c1ccc(C#N)cc1` [OSM-A-2] was tested. Which IC50 [3, 6] did it give?
**A.** The IC50 was 1830 nM.

**Q.** And the IC50 ([4]; Guy assay)?
**A.** The IC50 was 0.574 µM.

**Q.** Which results are given for `COc1cccc(-n2c(C)cc(/C=C3\S/C(=N\c4ccccc4)NC3=O)c2C)c1` [OSM-A-3]?
**A.** IC50 [3, 6]: 140 nM; IC50 ([4]; Guy assay): 0.098 µM

**Q.** How did the IC50 [3, 6] turn out when `Cc1cc(/C=C2\S/C(=N\c3ccccc3)NC2=O)c(C)n1-c1ccc(I)cc1` [OSM-A-4] was run?
**A.** The IC50 was 3160 nM.

**Q.** What about the IC50 ([4]; Guy assay) of the same compound?
**A.** Its IC50 is 1.75 µM.

**Q.** Which IC50 ([4]; Dundee assay) does the source give for `Cc1cc(S(=O)(=O)N(C)CC(N)=O)c(C)n1-c1ccc(F)cc1` [OSM-E-1] here?
**A.** The IC50 was over 50 µM.

**Q.** How did the IC50 ([4]; Dundee assay) turn out when `Cc1cc(S(=O)(=O)NCC(N)=O)c(C)n1-c1ccc(F)cc1` [OSM-E-2] was run?
**A.** The IC50 was over 50 µM.

**Q.** Which IC50 ([4]; Dundee assay) does the source give for `Cc1c(S(=O)(=O)N(C)CC(N)=O)c(S(=O)(=O)N(C)CC(N)=O)c(C)n1-c1ccc(F)cc1` [OSM-E-3] here?
**A.** The IC50 was over 50 µM.

**Q.** How did the IC50 ([4]; Dundee assay) turn out when `O=C(CBr)OCc1cn(-c2ccc(F)cc2)nn1` [OSM-E-4] was run?
**A.** The IC50 was over 50 µM.

**Q.** For `CCOC(=O)COCc1cn(-c2ccc(F)cc2)nn1` [OSM-E-5], which IC50 ([4]; Dundee assay) is on record?
**A.** The IC50 was over 50 µM.

**Q.** With `COC(=O)COCc1cn(-c2ccc(F)cc2)nn1` [OSM-E-6] as the compound, how does the IC50 ([4]; Dundee assay) read?
**A.** The IC50 was over 50 µM.

**Q.** With `O=C(COCc1cn(-c2ccc(F)cc2)nn1)OCc1cn(-c2ccc(F)cc2)nn1` [OSM-E-7] as the compound, how does the IC50 ([4]; Dundee assay) read?
**A.** The IC50 was over 50 µM.

**Q.** With `NC(=O)COCc1cn(-c2ccc(F)cc2)nn1` [OSM-E-8] as the compound, how does the IC50 ([4]; Dundee assay) read?
**A.** The IC50 was over 50 µM.

**Q.** How did the IC50 ([3]; Batra assay, read-out: Pfal (K1) IC50 (Batra)) turn out when `Cc1cc(/C=C2\S/C(=N\c3ccccc3)N(c3ccccc3)C2=O)c(C)n1-c1cccc(F)c1` [OSM-L-1] was run?
**A.** Its IC50 is over 5000 nM.

**Q.** What about the IC50 ([4]; Batra assay) of the same compound?
**A.** The IC50 was 3.2 µM.

**Q.** With `Cc1cc(/C=C2\SC(=Nc3ccccc3)N(c3ccccc3)C2=O)c(C)n1-c1cccc(F)c1` [OSM-L-1] as the compound, how does the IC50 ([5]; read-out: Pfal IC50 (Batra)) read?
**A.** The IC50 was 3.2 µM.

**Q.** And the IC50 ([2]; lab named in column head, read-out: Pfal (K1) IC50 (Batra))?
**A.** The IC50 was over 5000 nM.

**Q.** For `Cc1cc(C=O)c(C)n1-c1ccc(F)cc1` [OSM-S-2], which IC50 (PfDHODH) is on record?
**A.** Its IC50 is over 50 µM.

**Q.** With `CCOC(=O)c1cc(C)n(-c2ccc(F)cc2)c1C` [OSM-S-3] as the compound, how does the IC50 (PfDHODH) read?
**A.** Its IC50 is over 50 µM.

**Q.** For `Cc1cc(C(=O)O)c(C)n1-c1ccc(F)cc1` [OSM-S-4], which IC50 (PfDHODH) is on record?
**A.** Its IC50 is over 50 µM.

**Q.** Which IC50 (PfDHODH) does the source give for `Cc1cc(C(=O)OCC(=O)Nc2c(C)n(C)n(-c3ccccc3)c2=O)c(C)n1-c1ccc(F)cc1` [OSM-S-6] here?
**A.** Its IC50 is over 50 µM.

**Q.** How did the IC50 (PfDHODH) turn out when `Cc1cc(C(=O)N(C(=O)NC2CCCCC2)C2CCCCC2)c(C)n1-c1ccc(F)cc1` [OSM-S-7] was run?
**A.** Its IC50 is over 50 µM.
